Experimental data as given in ChEMBL document CHEMBL3085693, “Discovery of a potent inhibitor of replication protein a protein-protein interactions using a fragment-linking approach” (J Med Chem, 2013).
pKd: −log10 of the molar value. One block for each compound: values may come before it.

Key:
[1] = target: T1, Replication protein A 70 kDa DNA-binding subunit (Homo sapiens, UniProt P27694); experiment: Binding affinity to RPA70N (1 to 120) (unknown origin) expressed in Escherichia coli BL21-DE3 cells by NMR spectroscopy
T1 sequence (P27694 whole entry): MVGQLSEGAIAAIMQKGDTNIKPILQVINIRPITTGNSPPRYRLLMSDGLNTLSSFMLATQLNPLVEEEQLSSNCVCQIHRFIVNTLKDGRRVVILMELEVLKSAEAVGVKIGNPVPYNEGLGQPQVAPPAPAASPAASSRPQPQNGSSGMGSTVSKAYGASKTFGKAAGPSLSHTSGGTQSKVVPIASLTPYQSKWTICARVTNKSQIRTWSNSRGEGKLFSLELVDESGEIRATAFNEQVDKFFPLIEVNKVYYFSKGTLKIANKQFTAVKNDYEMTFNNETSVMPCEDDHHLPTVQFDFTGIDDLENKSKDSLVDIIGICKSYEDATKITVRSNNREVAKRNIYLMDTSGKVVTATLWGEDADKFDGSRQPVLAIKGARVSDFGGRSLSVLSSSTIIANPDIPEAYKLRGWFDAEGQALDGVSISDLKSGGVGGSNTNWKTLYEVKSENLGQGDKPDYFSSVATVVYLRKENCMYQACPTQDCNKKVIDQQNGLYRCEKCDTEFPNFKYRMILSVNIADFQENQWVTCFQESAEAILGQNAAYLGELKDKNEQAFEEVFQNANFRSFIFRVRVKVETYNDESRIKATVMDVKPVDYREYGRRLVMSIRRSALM

[2] = target: T1, Replication protein A 70 kDa DNA-binding subunit; experiment: Binding affinity to RPA70N (1 to 120) site2 (unknown origin) expressed in Escherichia coli BL21-DE3 cells by NMR spectroscopy
[3] = target: T1, Replication protein A 70 kDa DNA-binding subunit; experiment: Binding affinity to RPA70N (1 to 120) site1 (unknown origin) expressed in Escherichia coli BL21-DE3 cells by NMR spectroscopy
[4] = target: T1, Replication protein A 70 kDa DNA-binding subunit; experiment: Binding affinity to RPA70N (1 to 120) (unknown origin) expressed in Escherichia coli BL21-DE3 cells by FPA assay
[5] = target: T1, Replication protein A 70 kDa DNA-binding subunit; experiment: Binding affinity to RPA70NAB (unknown origin) by FPA assay
[6] = target: T1, Replication protein A 70 kDa DNA-binding subunit; experiment: Displacement of FITC-ss-DNA from RPA70AB domain (unknown origin) by FPA assay
[7] = target: T1, Replication protein A 70 kDa DNA-binding subunit; experiment: Displacement of FITC-ATRIP2 from RPA70N (1 to 120) (unknown origin) by FPA assay
[8] = target: T1, Replication protein A 70 kDa DNA-binding subunit; experiment: Displacement of FITC-ss-DNA from RPA70NAB domain (unknown origin) by FPA assay
[9] = target: T1, Replication protein A 70 kDa DNA-binding subunit; experiment: Displacement of FITC-ATRIP2 from RPA70NAB domain (unknown origin) by FPA assay

pKd [2]: 2.85
pKd [3]: 3.15
SMILES: O=C(O)c1ccc(-c2ccc(F)c(Cl)c2)o1

pKd [2]: 2.95
SMILES: O=C(O)c1cc(-c2ccc(F)cc2)n[nH]1

pKd [2]: 2.79
SMILES: CCc1c(O)[nH]c2nc3ccccc3n2c1=O

pKd [2]: < 2.70
pKd [3]: 3.24
SMILES: Cc1cccc(-n2nc(C(=O)O)cc2-c2ccccc2)c1

pKd [3]: 3.19
SMILES: Cc1cccc2c(-c3ccccc3)c(C(=O)O)[nH]c12

More lines, now with the values behind:

SMILES: O=C(O)c1cc(-c2ccc(CNC(=O)c3ccc(-c4ccc(C(=O)O)o4)cc3Cl)cc2)n(-c2ccc(Cl)c(Cl)c2)n1
pKd [1]: 5.54

SMILES: Cc1cccc(-n2nc(C(=O)O)cc2-c2ccc(OCc3ccc(-c4ccc(C(=O)O)o4)cc3)cc2)c1
pKd [4]: 4.70
pKd [1]: 4.59

SMILES: O=C(O)c1cc(-c2ccc(CNC(=S)c3ccc(-c4ccc(C(=O)O)o4)cc3Cl)cc2)n(-c2ccc(Cl)c(Cl)c2)n1
pKd [5]: 6.54
pKd [4]: 6.72
pKd [6]: 5.28
pKd [7]: 6.72
pKd [8]: 5.64
pKd [9]: 6.49
